Test results as given in patent US6355799B1, “Substituted benzene compounds, process for their preparation, and herbicidal and defoliant compositions containing them” (ISK Americas Incorporated, priority 1997, dated 2002).

What was measured:
Format in all cases: in vivo
[1] = test system: sicklepod (Cassia obtusifolia, CASOB); test: Pre-emerge test, greenhouse herbicide activity screening; conditions: pre-emerge, 14 days after application
Excerpt: (§1) A standard greenhouse herbicide activity screening system was used to evaluate the herbicidal efficacy and crop safety of these test compounds. Seven broadleaf weed species including redroot pigweed (Amaranthus retroflexus, AMARE, velvetleaf (Abutilon theophrasti, ABUTH), sicklepod (Cassia obtusifolia, CASOB), ivyleaf morningglory (Ipomoea hederacea, IPOHE), lambsquarters (Chenopodium album, CHEAL), common ragweed (Ambrosia artemisizfolia L., AMBEL), and cocklebur (Xanthium strumarium, XANST) were used as test species. Four grass weed species including green foxtail (Setaria viridis, SETVI), barnyardgrass (Echinochloa crus-galli, ECHCG), johnsongrass (Sorghum halepense, SORHA), and large crabgrass (Digitaria sanguinalis, DIGSA) were also used. In addition, three crop species, field corn (Zea mays L., var. Dekalb 535, CORN), soybean (Glycine max L., var. Pella 86, SOY), and is upland rice (Oryza sp., var. Tebonnet, RICE) were included.
(§2) All plants were grown in 10 cm square plastic pots which were filled with a sandy loam soil mix. For pre-emerge tests, seeds were planted one day prior to application of the test compounds. For post-emerge tests, seeds were planted 8-21 days prior to the test to allow emergence and good foliage development prior to application of the test substances. At the time of the post-emerge application, plants of all species were usually at the 2-3 leaf stage of development.
(§3) All test compounds Were dissolved in acetone and applied to the test units in a volume of 187 l /ha. Test materials were applied at rates ranging from 15 g ai/ha to 1000 g ai/ha using a track sprayer equipped with a TJ8001E even flow flat fan spray nozzle. Plants were arranged on a shelf so that the top of the canopy (post-emerge) or top of the soil surface (pre-emerge) was 40-45 cm below the nozzle. Pressurized air was used to force the test solution through the nozzle as it was mechanically advanced (via electrically driven chain drive) over the top of all test plants/pots. This application simulates a typical commercial field herbicide application.
(§4) In the post-emerge test, a commercial non-ionic surfactant was also included (0.25% v/v) to enhance wetting of the leaf surfaces of target plants. Immediately after application, test units of the pre-emerge applications were watered at the soil surface to incorporate the test materials. Subsequently, these test units were bottom-watered. Post-emerge test units were always bottom-watered.
(§5) At 14 days after application of the test materials, phytotoxicity ratings were recorded. A rating scale of 0-100 was used as previously described in Research Methods in Weed Science, 2nd edition, B. Truelove, Ed., Southern Weed Science Society, Auburn University, Auburn, Ala. 1977. Briefly, “0” corresponds to no damage and “100” corresponds to complete death of all plants in the test unit. This scale was used both to determine efficacy against weed species and damage to crop species. Herbicide activity data for various compounds of this invention, which are shown by compound No. in Tables 1-8, are shown in Tables 11 and 12.

[2] = test system: barnyardgrass (Echinochloa crus-galli, ECHCG); test: as above; conditions: pre-emerge, 14 days after application
Excerpt: as §1, §2, §3, §4, §5

[3] = test system: lambsquarters (Chenopodium album, CHEAL); test: as above; conditions: pre-emerge, 14 days after application
Excerpt: as §1, §2, §3, §4, §5

[4] = test system: large crabgrass (Digitaria sanguinalis, DIGSA); test: as above; conditions: pre-emerge, 14 days after application
Excerpt: as §1, §2, §3, §4, §5

[5] = test system: green foxtail (Setaria viridis, SETVI); test: as above; conditions: pre-emerge, 14 days after application
Excerpt: as §1, §2, §3, §4, §5

[6] = test system: velvetleaf (Abutilon theophrasti, ABUTH); test: as above; conditions: pre-emerge, 14 days after application
Excerpt: as §1, §2, §3, §4, §5

[7] = test system: ivyleaf morningglory (Ipomoea hederacea, IPOHE); test: as above; conditions: pre-emerge, 14 days after application
Excerpt: as §1, §2, §3, §4, §5

[8] = test system: redroot pigweed (Amaranthus retroflexus, AMARE); test: as above; conditions: pre-emerge, 14 days after application
Excerpt: as §1, §2
as §3, with “Test materials were applied at rates ranging from 15 g ai/ha to 1000 g ai/ha using a track sprayer equipped with a TJ8001E even flow flat fan spray nozzle.” left out
as §4, §5

[9] = test system: field corn (Zea mays L., var. Dekalb 535, CORN); test: Pre-emerge test, crop safety; conditions: pre-emerge, 14 days after application, scale 0-100
Excerpt: as §1, §2, §3, §4, §5

[10] = test system: upland rice (Oryza sp., var. Tebonnet, RICE); test: Pre-emerge test, crop safety; conditions: pre-emerge, 14 days after application, scale 0-100
Excerpt: as §1, §2, §3, §4, §5

[11] = test system: sicklepod (Cassia obtusifolia, CASOB); test: Post-emerge test, greenhouse herbicide activity screening; conditions: post-emerge, 14 days after application, rating scale 0-100
Excerpt: as §1, §2, §3, §4, §5

[12] = test system: barnyardgrass (Echinochloa crus-galli, ECHCG); test: as above; conditions: post-emerge, 14 days after application, rating scale 0-100
Excerpt: as §1, §2, §3, §4, §5

[13] = test system: lambsquarters (Chenopodium album, CHEAL); test: as above; conditions: post-emerge, 14 days after application, rating scale 0-100
Excerpt: as §1, §2, §3, §4, §5

[14] = test system: large crabgrass (Digitaria sanguinalis, DIGSA); test: as above; conditions: post-emerge, 14 days after application, rating scale 0-100
Excerpt: as §1, §2, §3, §4, §5

[15] = test system: green foxtail (Setaria viridis, SETVI); test: as above; conditions: post-emerge, 14 days after application, rating scale 0-100
Excerpt: as §1, §2, §3, §4, §5

[16] = test system: velvetleaf (Abutilon theophrasti, ABUTH); test: as above; conditions: post-emerge, 14 days after application, rating scale 0-100
Excerpt: as §1, §2, §3, §4, §5

[17] = test system: redroot pigweed (Amaranthus retroflexus, AMARE); test: as above; conditions: post-emerge, 14 days after application
Excerpt: as §1, §2, §3, §4, §5

[18] = test system: ivyleaf morningglory (Ipomoea hederacea, IPOHE); test: as above; conditions: post-emerge, 14 days after application, rating scale 0-100
Excerpt: as §1, §2, §3, §4, §5

[19] = 250 g ai/ha, rating scale 0-100

## COc1c(Cl)cc(F)c(-n2c(=O)cc(C(F)(F)F)n(C)c2=O)c1NC(=O)c1cc2ccccc2cc1C [2-157]
[1]; 63 g ai/ha, scale 0-100
  phytotoxicity rating CASOB: 30
[1]; 250 g ai/ha, scale 0-100
  phytotoxicity rating CASOB: 90
[2]; 63 g ai/ha, scale 0-100
  phytotoxicity rating ECHCG: 30
[2]; 250 g ai/ha, scale 0-100
  phytotoxicity rating ECHCG: 95
[3]; 63 g ai/ha, scale 0-100
  phytotoxicity rating CHEAL: 100
[3]; 250 g ai/ha, scale 0-100
  phytotoxicity rating CHEAL: 100
[4]; 63 g ai/ha, scale 0-100
  phytotoxicity rating DIGSA: 35
[4]; 250 g ai/ha, scale 0-100
  phytotoxicity rating DIGSA: 70
[5]; 63 g ai/ha, scale 0-100
  phytotoxicity rating SETVI: 30
[5]; 250 g ai/ha, scale 0-100
  phytotoxicity rating SETVI: 70
[6]; 63 g ai/ha, scale 0-100
  phytotoxicity rating ABUTH: 100
[6]; 250 g ai/ha, scale 0-100
  phytotoxicity rating ABUTH: 100
[7]; 63 g ai/ha, scale 0-100
  phytotoxicity rating IPOHE: 40
[7]; 250 g ai/ha, scale 0-100
  phytotoxicity rating IPOHE: 100
[8]; 63 g ai/ha, scale 0-100
  phytotoxicity rating AMARE: 100
[8]; 250 g ai/ha, scale 0-100
  phytotoxicity rating AMARE: 100
[9]; 63 g ai/ha
  phytotoxicity rating CORN (crop damage): 0
[9]; 250 g ai/ha
  phytotoxicity rating CORN (crop damage): 45
[10]; 63 g ai/ha
  phytotoxicity rating RICE (crop damage): 30
[10]; 250 g ai/ha
  phytotoxicity rating RICE (crop damage): 70

## COc1c(Cl)cc(F)c(-n2c(=O)cc(C(F)(F)F)n(C)c2=O)c1NN [Compound 15-1, 3-[4-chloro-2-diazanyl-6-fluoro-3-methoxyphenyl]-1-methyl-6-trifluoromethyl-2,4(1H, 3H)-pyrimidinedione]
[1]; 63 g ai/ha, rating scale 0-100
  phytotoxicity rating CASOB: 100
[1]; [19]
  phytotoxicity rating CASOB: 100
[2]; 63 g ai/ha, rating scale 0-100
  phytotoxicity rating ECHCG: 91
[2]; [19]
  phytotoxicity rating ECHCG: 100
[3]; 63 g ai/ha, rating scale 0-100
  phytotoxicity rating CHEAL: 100
[3]; [19]
  phytotoxicity rating CHEAL: 100
[4]; 63 g ai/ha, rating scale 0-100
  phytotoxicity rating DIGSA: 100
[4]; [19]
  phytotoxicity rating DIGSA: 100
[5]; 63 g ai/ha, rating scale 0-100
  phytotoxicity rating SETVI: 100
[5]; [19]
  phytotoxicity rating SETVI: 100
[6]; 63 g ai/ha, rating scale 0-100
  phytotoxicity rating ABUTH: 100
[6]; [19]
  phytotoxicity rating ABUTH: 100
[7]; 63 g ai/ha, rating scale 0-100
  phytotoxicity rating IPOHE: 100
[7]; [19]
  phytotoxicity rating IPOHE: 100
[11]; 63 g ai/ha
  Post-emerge Herbicidal Activity CASOB (phytotoxicity rating): 100
[11]; 250 g ai/ha
  Post-emerge Herbicidal Activity CASOB (phytotoxicity rating): 100
[12]; 63 g ai/ha
  Post-emerge Herbicidal Activity ECHCG (phytotoxicity rating): 80
[12]; 250 g ai/ha
  Post-emerge Herbicidal Activity ECHCG (phytotoxicity rating): 99
[13]; 63 g ai/ha
  Post-emerge Herbicidal Activity CHEAL (phytotoxicity rating): 100
[13]; 250 g ai/ha
  Post-emerge Herbicidal Activity CHEAL (phytotoxicity rating): 100
[14]; 63 g ai/ha
  Post-emerge Herbicidal Activity DIGSA (phytotoxicity rating): 90
[14]; 250 g ai/ha
  Post-emerge Herbicidal Activity DIGSA (phytotoxicity rating): 100
[15]; 63 g ai/ha
  Post-emerge Herbicidal Activity SETVI (phytotoxicity rating): 80
[15]; 250 g ai/ha
  Post-emerge Herbicidal Activity SETVI (phytotoxicity rating): 100
[16]; 63 g ai/ha
  Post-emerge Herbicidal Activity ABUTH (phytotoxicity rating): 100
[16]; 250 g ai/ha
  Post-emerge Herbicidal Activity ABUTH (phytotoxicity rating): 100
[17]; 63 g ai/ha, rating scale 0-100 (0 no damage, 100 complete death)
  Post-emerge Herbicidal Activity AMARE (phytotoxicity rating): 100
[17]; [19]
  Post-emerge Herbicidal Activity AMARE (phytotoxicity rating): 100
[18]; 63 g ai/ha
  Post-emerge Herbicidal Activity IPOHE (phytotoxicity rating): 100
[18]; 250 g ai/ha
  Post-emerge Herbicidal Activity IPOHE (phytotoxicity rating): 100
[8]; 63 g ai/ha, rating scale 0-100
  phytotoxicity rating AMARE: 100
[8]; [19]
  phytotoxicity rating AMARE: 100
